According to BindingDB's records for doi:10.1016/j.bmcl.2008.12.074 (Boehringer Ingelheim (Canada), 2009):
pEC50, pIC50: −log10 of the molar value.

Experiments:
[1] = target: T1, Gag-Pol polyprotein [588-1027,K691N,Y769C]/[588-1147,K691N,Y769C] (Human immunodeficiency virus 1, UniProt P04585, K691N/Y769C); experiment: Reverse Transcriptase Assay
T1 construct: 588-1027; 588-1147

[2] = target: T2, Gag-Pol polyprotein [588-1027] (Human immunodeficiency virus type 1 group M subtype B (isolate HXB2), UniProt P04585); experiment: Reverse Transcriptase Assay; details: pH 7.4; 37 °C
T2 construct: 588-1027

Cc1ccc(-n2nnnc2SCC(=O)Nc2ccc(-c3ccc(CC(=O)O)cc3)cc2Cl)c(Cl)c1 [2-{4-[3-chloro-4-(2-{[1-(2-chloro-4-methylphenyl)-1H-1,2,3,4-tetrazol-5-yl]sulfanyl}acetamido)phenyl]phenyl}acetic acid]
pIC50 [1]: 7.32
pIC50 [2]: 8.62

Cc1ccc(-n2ncc(C)c2SCC(=O)Nc2ccc(-c3ccc(CC(=O)O)cc3)cc2Cl)c(Cl)c1 [2-{4-[3-chloro-4-(2-{[1-(2-chloro-4-methylphenyl)-4-methyl-1H-pyrazol-5-yl]sulfanyl}acetamido)phenyl]phenyl}acetic acid]
pIC50 [1]: < 5.00
pIC50 [2]: < 5.00

Cc1ccc(-c2c(SCC(=O)Nc3ccc(-c4ccc(OCC(=O)O)cc4)cc3Cl)ccn2C)c(Cl)c1 [2-{4-[3-chloro-4-(2-{[2-(2-chloro-4-methylphenyl)-1-methyl-1H-pyrrol-3-yl]sulfanyl}acetamido)phenyl]phenoxy}acetic acid]
pIC50 [2]: < 6.00

CC(C)(C)c1ccc(-c2c[nH]nc2OCC(=O)Nc2ccc(-c3ccc(CC(=O)O)cc3)cc2Cl)c(Cl)c1 [2-{4-[4-(2-{[4-(4-tert-butyl-2-chlorophenyl)-1H-pyrazol-3-yl]oxy}acetamido)-3-chlorophenyl]phenyl}acetic acid]
pIC50 [2]: < 5.48

Cc1ccc(-n2cc(C)nc2SCC(=O)Nc2ccccc2Cl)c(Cl)c1 [2-{[1-(2-chloro-4-methylphenyl)-4-methyl-1H-imidazol-2-yl]sulfanyl}-N-(2-chlorophenyl)acetamide]
pIC50 [1]: < 5.00
pIC50 [2]: < 6.00

Cc1[nH]nc(OCC(=O)Nc2ccc(C#CC(C)(C)CO)cc2Cl)c1-c1ccc(C(C)(C)C)cc1Cl [2-{[4-(4-tert-butyl-2-chlorophenyl)-5-methyl-1H-pyrazol-3-yl]oxy}-N-[2-chloro-4-(4-hydroxy-3,3-dimethylbut-1-yn-1-yl)phenyl]acetamide]
pEC50 [2]: < 5.30
pIC50 [2]: < 5.48
